The values below come from patent publication US6949558B2, “Enhancement of taxane-based chemotherapy by a CDK1 antagonist” (Yale University, priority 2001, dated 2005).

Test [1] has as its system survivin expression in MCF-7 cells. As to the kind of experiment: Survivin expression by Western blotting in MCF-7 cells. The test is classed as cell-based, human. To be noted: taxol 2 μM (FIG. 19A). A general note: A western blot detects proteins with antibodies after separation by electrophoresis.
The next test concerns MCF-7 cells. Description: Apoptosis by DNA content analysis and flow cytometry in MCF-7 cells. The test is classed as cell-based, human. The procedure:
Cervical carcinoma HeLa (functionally inactivated p53) cells or breast carcinoma MCF-7 (wild type p53) cells were plated at 50-60% confluency in C-6 wells. […]
(§1) After 4, 8, 16, and 32 hours of incubation, without removing taxol from the wells, purvalanol A was added at three increasing concentrations, 1, 10 and 20 uM (FIG. 1). A control was performed with addition of purvalanol A at the 0-h time point.
(§2) The cell populations were harvested at increasing time intervals from the 0-h time point or corresponding to the addition of purvalanol A. Apoptosis was analyzed by DNA content analysis and flow cytometry (DAPI staining).
Background: Flow cytometry measures light scatter and fluorescence of single cells or particles in a stream.

The test system of test [2] is survivin RNA in HeLa cells. As to the kind of experiment: Northern hybridization of survivin RNA in HeLa cells. The test is classed as cell-based, human. To be noted: presence or absence of taxol.
Test [3] relates to survivin expression in PC3 cells. Description: Survivin expression by Western blotting in PC3 cells. The test is classed as cell-based. To be noted: taxol.
For test [4], the system named is survivin expression in HT2-19 cells. As to the kind of experiment: Survivin expression by Western blotting in HT2-19 cells. The test is classed as cell-based. To be noted: taxol 0.2 μM. The text has this: Cell Cultures and Antibodies: Breast carcinoma MCF-7, prostate carcinoma PC3, and cervical carcinoma HeLa cells (American Type Culture Collection, Manassas, Va.) were maintained in culture according to the supplier's recommendations. HT2-19 cells with conditional inactivation of the p34^cdc2 gene were described previously (J. E. Itzhaki et al. (1997) Nat. Gen. 15: 258-265). In this cell line, removal of IPTG from the culture medium results in inactivation of the second p34^cdc2 allele (J. E. Itzhaki et al. (1997) Nat. Gen. 15: 258-265). For spindle checkpoint activation, the various cell types were treated with taxol (0.2-2 μM, Sigma Chemical Co., St. Louis, Mo.), vincristine (100 nM, Sigma) or cisplatin (3 μM, Sigma) for 16 h at 37° C. For genetic ablation of p34^cdc2, HT2-19 cells were washed and cultivated in the absence of IPTG for 48-72 h before analysis of apoptosis (see below) or expression of survivin or p34^cdc2, by Western blotting. In some experiments, taxol (0.2 μM) was added to HT2-19 cells simultaneously with the withdrawal of IPTG, and cells were processed as described above. […] For viral transduction, HT2-19 cells in the absence of IPTG were infected with pAd-GFP or pAd-Survivin at multiplicity of infection (m.o.i.) of 50, and analyzed after a 48-72 h culture for changes in cell cycle progression and apoptosis. […]

The subject of another test is HeLa cells. As to the kind of experiment: Apoptosis by DNA content analysis and flow cytometry in HeLa cells. The test is classed as cell-based, human. Conditions: HeLa. The procedure: Cervical carcinoma HeLa (functionally inactivated p53) cells or breast carcinoma MCF-7 (wild type p53) cells were plated at 50-60% confluency in C-6 wells. Cells were treated with taxol at 0.2 μM for 0 to 32 hours in complete media.
as §1, §2

Setting [5] is: taxol 2 μM, adriamycin 100 nM, cis-platin 3 μM (Example 7).

Turning to `CC(=O)O[C@H]1C(=O)[C@@]2(C)[C@H]([C@H](OC(=O)c3ccccc3)[C@]3(O)C[C@H](OC(=O)[C@H](O)[C@@H](NC(=O)c4ccccc4)c4ccccc4)C(C)=C1C3(C)C)[C@]1(OC(C)=O)CO[C@@H]1C[C@@H]2O` [taxol, Paclitaxel], the “increased expression of survivin” value in test [1] is reported as 3-4 fold. The “apoptosis (hypodiploid cell fraction)” value in the test with MCF-7 cells (taxol 0.2 μM for 0 to 32 hours) and in the test with HeLa cells (taxol 0.2 μM for 0 to 32 hours) was “virtually no apoptosis” each time. Besides, the cell cycle arrest result in the test on MCF-7 cells (taxol 0.2 μM for 0 to 32 hours) is reported as “uniform M arrest”; in the test with MCF-7 cells (setting [5]), “G2/M arrest”; in the test on MCF-7 cells (taxol 0.2-2 μM (Example 8)), “sustained (48-72 h) mitotic arrest”; with HeLa cells (taxol 0.2 μM or purvalanol A 1-20 uM alone (Examples 1, 2)) it was “uniform M arrest”. The apoptosis entry in the test with MCF-7 cells (setting [5]) is listed as “negligible apoptosis”; in the test on HeLa cells (taxol 0.2 μM, up to 32 h (Example 8)), “negligible induction of apoptosis”. Also, the “survivin RNA levels” value in test [2] is “no significant changes in survivin RNA levels”. Further, the survivin expression entry in test [3] is given as “increased expression of survivin”; in test [4] (HT2-19 cells in the absence of IPTG (p34^cdc2 −/−)) it was “only a minimally detectable increase in survivin expression”. In addition, the survivin levels result in test [4] (IPTG+ HT2-19 cells (p34^cdc2 +/−)) is reported as “increased survivin levels”. In the test with HeLa cells (16 h, taxol 0.2 μM, Purvalanol A 20 μM, alone or sequential), the “cell population with hypodiploid (apoptotic) DNA content / cell death” value amounted to 16%. Moreover, the hypodiploid cells in the test on HeLa cells (taxol 0.2 μM alone (Example 1)) is listed as ~10%.
